We go through nine compounds from patent US8334253B2, “Cosmetic and dermatological formulations of MNTF peptides” (Dermacare Neuroscience Institute, priority 2008, dated 2012).

Ends that are not written are not given here.

For data set [1], the system named is UVA-bleaching of beta-carotene. Briefly: UVA bleaching of beta-carotene on forearm skin, Color Index by CHROMAMETER
Particulars: human forearm. It is filed as in vivo, human. The procedure:
In-vivo method for assessing the protective effects of cosmetic products. Bleaching of carotenoids have been used to evaluate the auto-oxidation activity of natural products. The relative efficacy of scavengers of lipid peroxyl free radicals after application to the skin was assessed by measuring the UVA-bleaching of beta-carotene as a function of the energy exposure.
A CHROMAMETER colorimeter (TM, Minolta Model CR-300) was used to measure changes in color by expressing the color of measured surfaces numerically in L*a*b* color space which is a system recommended by the CIE (Commission Internationale de I'Eclairage) for skin color assessment. In this color space, L* is the luminance and gives the relative brightness from total black (L*=0) to total white (L*=100). The a* value represents the balance between the reds (positive values) and the greens (negative values). The b* value represents the balance between the yellows (positive values) and the blues (negative values). The b* value most closely describes the intensity of the orange color of the β-carotene stain and is in direct correlation with the Color Index, I. The CHROMAMETER provides a means by which oxidative damage caused by free radicals and, conversely, the prevention of oxidation by free radical scavengers, can be measured. Free radical oxidation induced by UVA radiation elicits a bleaching and reduction of color of beta-carotene stain. The bleaching and prevention of bleaching by a test material can be measured by the CHROMAMETER. Bleaching is reported as the change in b* versus UVA Irradiation Energy. It can also be expressed in terms of a Color Index, I, defined as: I=[(bn*−bi*)/(b0*−bi*)]×100 where, bn* is the value of b* measured after n J/cm^2 of irradiation of the area treated with the cosmetic formulation and painted with the β-carotene; b0* is the value of b* after application of the beta-carotene but before irradiation; and bi* is the value of b* before application of the beta-carotene. This index compensates for any effects of skin color on bn* and b0*. Bleaching will cause bn* value and I value (as a percentage) to decrease. Prevention of bleaching will result in higher I values or less reduction in I value when exposed to radiation.
The designated forearm of impaneled subjects was cleansed with a 70% isopropyl alcohol prep pad (Medium, Dynarex) and allowed to dry. Test sites were selected on the volar surface of the designated forearm of each subject, with each test site defined by the open, central area of a self-adhesive ring (Professional ProFoot™ Products, P.P.R. Co, Inc.). The adhesive side of the rings were placed directly on the skin. The rings were used to retain the test material and beta-carotene solution as well as to function as a guide for taking measurements with the CHROMAMETER.
Gel formulations (0.1% Pal-hexapeptide) and (0.1% hexapeptide) were applied to the forearm according to a randomized schedule. Additional sites were treated with a beta-carotene control, a positive control (internal control) and an untreated control. Treatment of the test sites were randomized for each subject.
Prior to application of the test materials or beta-carotene, the initial b* parameter was measured using the CHROMAMETER and recorded for all duplicate test sites of the forearm (Baseline). Approximately 2 mg/cm^2 of each material was applied to the designated test site and spread manually with a finger cot to ensure even distribution. Sites designated as untreated, with or without beta-carotene, remained untreated at this time. The test materials and internal control were allowed to incubate with the skin surface for a period of fifteen (15) minutes. After this incubation period, b* measurements were recorded for all sites (Product Baseline).
A solution of beta-carotene in a mixture of capric and caprylic triglycerides was applied to all treated sites. The b* parameter is again measured and recorded (beta-carotene Baseline). […]

Data set [2] has as its system cellular peroxide levels in human epidermal keratinocytes. Description: Cellular peroxide levels in keratinocytes, DCFH-DA dye and flow cytometry, with and without exogenous H2O2. Format: cell-based. The procedure: Hydrogen peroxide can induce damages to skin cells. The dermal protective efficacy of Pal-hexapeptide was assessed by measuring basal peroxide levels in the presence and absence of the compound.
Basal peroxide production, generated by normal cellular metabolism, induce gradual development of low levels of peroxide-specific cellular fluorescence.
Extracellular peroxides (e.g., H2O2 added exogenously) can permeate the cell membrane and cause a rapid and dramatic increase in the peroxide-specific fluorescence of the cell. Cellular peroxides levels can be measured by flow cytometry using the peroxide-specific dye, 2′,7′-dichlorofluorescein diacetate (DCFH-DA). DCFH-DA is initially non-fluorescent and is rapidly concentrated within living cells by an enzyme-dependent process. […] The results of the assay indicates if a test compound functions as an oxidant or an anti-oxidant in a cellular system. If the test article functions as an anti-oxidant, this assay can also be used to determine if the test compound can permeate the cell membrane to quench intracellular peroxide or if it can only affect extracellular peroxide levels (Bass et al., 1983, J. Immunol. 130:1910-1917; Bombick et al., 1992, Toxicol. Meth. 2:255-264).
Human primary keratinocytes, generally on the third passage, were seeded in T75 flasks and cultured until 70-80% confluent. A cell suspension was created and these cells were loaded with the dye DCFH-DA. The pre-incubated cells were exposed to dilutions of the Pal-hexapeptide having the amino acid sequence SEQ ID NO: 2 in two triplicate sets per dilution. One triplicate set was incubated with H2O2 (exogenous source of peroxide), and both sets were stained with Propidium Iodide. Cell viability and peroxide production were determined by fluorescence readings on a FACScan flow cytometer. Peroxide value increases or decreases of 25% or more compared to vehicle control values are considered biologically significant.
(In general: Flow cytometry measures light scatter and fluorescence of single cells or particles in a stream.)

As for `CC1=C(/C=C/C(C)=C/C=C/C(C)=C/C=C/C=C(C)/C=C/C=C(C)/C=C/C2=C(C)CCCC2(C)C)C(C)(C)CCC1` [PC (beta-carotene), beta-carotene], the “average Color Index Value” in data set [1] (UVA energy 0 J/cm^2) is listed as 100%; in data set [1] (UVA energy 1 J/cm^2), 36%; in data set [1] (UVA energy 2 J/cm^2), 27%; in data set [1] (UVA energy 3 J/cm^2), 23%; in data set [1] (UVA energy 4 J/cm^2), 16%; in data set [1] (UVA energy 5 J/cm^2) it was 14%. Moreover, the “average Color Index Value” in data set [1] (UVA energy 6 J/cm^2) stood at 13%.

`Cc1c(C)c2c(c(C)c1O)CCC(C)(C(=O)O)O2` (centres unmarked) [Trolox, reference compound]: in data set [2] (positive control, 300 μM, endogenous peroxide), the “peroxide level, % of the control, endogenous peroxide assay without exogenous H2O2” value is given as 69.79%. Moreover, the “peroxide level, % of the control, assay with exogenous added peroxide” value in data set [2] (positive control, 300 μM, exogenous H2O2 added) came out at 24.97%.

Turning to FSR [CS2307], the “% Control (no H2O2), peroxide level” value in data set [2] (0.1 mM, endogenous peroxide) was 98.7%; in data set [2] (1 mM, endogenous peroxide), 60.6%; in data set [2] (10 mM, endogenous peroxide), −8.5%; in data set [2] (10 mM, endogenous peroxide, listed as MNTF 3-mer), 0%. Further, the “% Control (with H2O2), peroxide level” value in data set [2] (0.1 mM, exogenous H2O2 added) was 95.5%; in data set [2] (1 mM, exogenous H2O2 added), 62.5%; in data set [2] (10 mM, exogenous H2O2 added) it was −1.5%; in data set [2] (10 mM, exogenous H2O2 added, listed as MNTF 3-mer), 0%. Also, the “endogenous peroxide level (as defined by the 25% cutoff), in words” value in data set [2] (1 mM, endogenous peroxide) is given as “decreased”; in data set [2] (10 mM, endogenous peroxide) it was “decreased”. Moreover, the “exogenous peroxide level (as defined by the 25% cutoff), in words” value was “decreased” in data set [2] (1 mM, exogenous H2O2 added) and “decreased” in data set [2] (10 mM, exogenous H2O2 added).

Turning to FSRY [CS2308], the “% Control (no H2O2), peroxide level” value in data set [2] (0.1 mM, endogenous peroxide) stood at 98.6%; in data set [2] (1 mM, endogenous peroxide), 77.2%; in data set [2] (10 mM, endogenous peroxide) it was 25.2%; in data set [2] (10 mM, endogenous peroxide, listed as MNTF 4-mer), 0%. The “% Control (with H2O2), peroxide level” value is recorded as 84.5% in data set [2] (0.1 mM, exogenous H2O2 added); 54.9% in data set [2] (1 mM, exogenous H2O2 added); −5.8% in data set [2] (10 mM, exogenous H2O2 added); 25.2% in data set [2] (10 mM, exogenous H2O2 added, listed as MNTF 4-mer). Further, the “exogenous peroxide level (as defined by the 25% cutoff), in words” value in data set [2] (1 mM, exogenous H2O2 added) is on record as “decreased”; in data set [2] (10 mM, exogenous H2O2 added) it was “decreased”. In addition, the “endogenous peroxide level (as defined by the 25% cutoff), in words” value in data set [2] (10 mM, endogenous peroxide) is given as “decreased”.

As to FSRYA [CS2309], the “% Control (no H2O2), peroxide level” value is 103.3% in data set [2] (0.1 mM, endogenous peroxide); 61.6% in data set [2] (1 mM, endogenous peroxide); 3.6% in data set [2] (10 mM, endogenous peroxide). For the same compound, the “% Control (with H2O2), peroxide level” value in data set [2] (0.1 mM, exogenous H2O2 added) is on record as 87.2%; in data set [2] (1 mM, exogenous H2O2 added), 46.2%; in data set [2] (10 mM, exogenous H2O2 added), −5.9%; in data set [2] (10 mM, exogenous H2O2 added, listed as MNTF 5-mer), 0%. In addition, the “endogenous peroxide level (as defined by the 25% cutoff), in words” value was “decreased” in data set [2] (1 mM, endogenous peroxide) and “decreased” in data set [2] (10 mM, endogenous peroxide). Further, the “exogenous peroxide level (as defined by the 25% cutoff), in words” value in data set [2] (1 mM, exogenous H2O2 added) was “decreased”; in data set [2] (10 mM, exogenous H2O2 added), “decreased”.

Consider FSRYAR [GM602, FSRYAR], for which the “% Control (no H2O2), peroxide level” value is 94.9% in data set [2] (0.1 mM, endogenous peroxide); 73.6% in data set [2] (1 mM, endogenous peroxide); 25.0% in data set [2] (10 mM, endogenous peroxide). The “% Control (with H2O2), peroxide level” value in data set [2] (0.1 mM, exogenous H2O2 added) amounted to 92.9%; in data set [2] (1 mM, exogenous H2O2 added), 56.0%; in data set [2] (10 mM, exogenous H2O2 added), 14.3%. In addition, the “Cell viability, expressed as % of non-viable, treated versus not treated cells” value in data set [2] (keratinocytes, Propidium Iodide staining) is listed as “about the same”.

Regarding “Pal 3 mer: palmitylated form of the MNTF 3 mer (SEQ ID NO:9) (Phe-Ser-Arg; also: palmitoyl group)”, the “% Control (no H2O2), peroxide level” value in data set [2] (0.01 mM, endogenous peroxide) was found to be 99.4%; in data set [2] (0.1 mM, endogenous peroxide), 98.7%; in data set [2] (1 mM, endogenous peroxide), 101.1%. Moreover, the “% Control (with H2O2), peroxide level” value in data set [2] (0.01 mM, exogenous H2O2 added) came out at 101.0%; in data set [2] (0.1 mM, exogenous H2O2 added) it was 96.1%; in data set [2] (1 mM, exogenous H2O2 added), 71.9%. Further, in data set [2] (1 mM, exogenous H2O2 added), the “exogenous peroxide level (as defined by the 25% cutoff), in words” value is given as “decreased”.

Regarding “Pal 4mer: palmitylated form of the MNTF 4 mer (SEQ ID NO:11) (FSRY; also: palmitoyl group)”, the “% Control (no H2O2), peroxide level” value was determined as 97.2% in data set [2] (0.01 mM, endogenous peroxide); 96.8% in data set [2] (0.1 mM, endogenous peroxide); 81.8% in data set [2] (1 mM, endogenous peroxide). Also, the “% Control (with H2O2), peroxide level” value in data set [2] (0.01 mM, exogenous H2O2 added) was 102.4%; in data set [2] (0.1 mM, exogenous H2O2 added), 96.6%; in data set [2] (1 mM, exogenous H2O2 added), 67.2%. Further, in data set [2] (1 mM, exogenous H2O2 added), the “exogenous peroxide level (as defined by the 25% cutoff), in words” value is “decreased”.

In the case of “Pal 5 mer: palmitylated form of the MNTF 5 mer (SEQ ID NO:17) (FSRYA; also: palmitoyl group)”, the “% Control (no H2O2), peroxide level” value in data set [2] (0.01 mM, endogenous peroxide) amounted to 95.3%; in data set [2] (0.1 mM, endogenous peroxide), 92.8%; in data set [2] (1 mM, endogenous peroxide) it was 83.6%. Moreover, the “% Control (with H2O2), peroxide level” value in data set [2] (0.01 mM, exogenous H2O2 added) was found to be 98.6%; in data set [2] (0.1 mM, exogenous H2O2 added) it was 96.0%; in data set [2] (1 mM, exogenous H2O2 added), 62.2%. The “exogenous peroxide level (as defined by the 25% cutoff), in words” value in data set [2] (1 mM, exogenous H2O2 added) was “decreased”.
